One compound from patent US10245252B2, “Use of alkylamidothiazoles in cosmetic or dermatological preparations for the prophylaxis or treatment of sensitive skin” (BEIERSDORF AG, priority 2013, dated 2019) can be followed below.

Type in all cases: cell-based
For one experiment, the system named is NFκB. Kind of experiment: NFκB activity assay (commercial assay from Cell Culture Service GmbH), NFκB activated by TNF-alpha. The settings on record: NFκB activated by adding TNF-alpha; FIG. 1; very low concentrations. The source says:
The nuclear factor kappa B (NFκB) is a master regulator of inflammation. The expression of many pro-inflammatory mediators (e.g. cytokines and chemokines) is controlled by NFκB. The inhibition of the activation of NFκB is therefore an important mechanism for minimizing inflammation processes. To measure the NFκB activity, a commercial assay from Cell Culture Service GmbH, Hamburg, was used. In this test, NFκB is activated by adding the pro-inflammatory mediator TNF-alpha. The addition of the alkylamidothiazoles according to the invention prevents the TNF-alpha effect in a dose-dependent manner.

In a further experiment the test system is human dermal fibroblasts. Put plainly: LPS-induced prostaglandin E2 formation in human dermal fibroblasts, ELISA of cell culture supernatant. The settings on record: incubation for 24 hours with LPS and increasing concentrations, FIG. 2, compared with diclofenac. Here is the method:
(§1) In further experiments it was investigated whether the inhibition of the NFκB activation also actually reduces the subsequent secretion of pro-inflammatory mediators. By way of example, the results of two experiments are documented in the figures. By incubation of human dermal fibroblasts with lipopolysaccharides (LPS), the formation of the pro-inflammatory prostaglandin E2 was induced in the cells, and a specific ELISA was used to determine the concentration in the cell culture supernatant, following incubation for 24 hours with LPS and increasing concentrations of the substances according to the invention. […] In the next experiment, the release of interleukin 1β (IL-1β) from blood leukocytes following stimulation by LPS and simultaneous incubation (for 24 hours) with the substances according to the invention was measured. […] The anti-inflammatory activity level of the alkylamidothiazoles is thus that of recognized pharmacological standards, although higher concentrations of the substances according to the invention do have to be used.

Another experiment deals with blood leukocytes. Put plainly: release of interleukin 1β from blood leukocytes following stimulation by LPS. The settings on record: FIG. 3. Here is the method: as §1

On to `CC(C)C(=O)Nc1nc(-c2ccc(O)cc2O)cs1` [N-(4-(2,4-dihydroxyphenyl)thiazol-2-yl)isobutyramide], for which, in the experiment with NFκB, the “inhibition of the TNF-alpha-induced activation of NFκB” value is reported as “prevent the TNF-alpha-induced activation of NFκB”. The “release of PGE2” value in the experiment with human dermal fibroblasts is “very significantly reduces the release of PGE2 to a level which is comparable to the pharmacological standard diclofenac”. In addition, in the experiment on blood leukocytes (LPS stimulation and simultaneous incubation for 24 hours), the “release of interleukin 1β (IL-1β)” value was “very good anti-inflammatory effectiveness”. In addition, the “release of interleukin 1β (IL-1β), effectiveness relative to dexamethasone” value in the experiment on blood leukocytes (concentration of 16.67 μM, LPS, 24 hours) is on record as “an effectiveness as for 500 ng of dexamethasone”.
